Assay results from patent publication US8685999B2, “Beta carboline sulphonylurea derivatives as EP4 receptor antagonists” (Merck Sharp & Dohme Corp., priority 2008, dated 2014).

Target: T1, EP4 (Homo sapiens, UniProt P35408)
T1 construct: expressed in transfected cells; membranes prepared by differential centrifugation
Assay: Prostanoid receptor binding assay (radioligand displacement binding assay)
Conditions: column marked X when IC50 < 1; read-out: IC50 (nm) X < 1
Procedure: Prostanoid receptor cDNAs corresponding to full length coding sequences are subcloned into the appropriate sites of mammalian expression vectors and transfected into HEK 293(ebna) cells. HEK 293(ebna) cells expressing the individual cDNAs are grown under selection and individual colonies are isolated after 2-3 weeks of growth using the cloning ring method and subsequently expanded into clonal cell lines.
Transfected HEK 293(ebna) cells are maintained in culture, harvested and membranes are prepared by differential centrifugation, following lysis of the cells in the presence of protease inhibitors, for use in receptor binding assays. Prostanoid receptor binding assays (for DP1, DP2 (CRTH2), EP1, EP2, EP3-III, EP4, FP, IP, and TP) are performed in 10 mM MES/KOH (pH 6.0) (EPs, FP and TP) or 10 mM HEPES/KOH (pH 7.4) (DPs and IP), containing 1 mM EDTA, 2.5-30 mM divalent cation and the appropriate radio-ligand. Synthetic compounds are added in DMSO which is kept constant at 1% (v/v) in all incubations. The reaction is initiated by addition of membrane protein. Non-specific binding is determined in the presence of 10 μM of the corresponding non-radioactive prostanoid. Incubations are conducted for 60-120 min at room temperature or 30° C. and terminated by rapid filtration. Specific binding is calculated by subtracting non specific binding from total binding. The residual specific binding at each ligand concentration is calculated and expressed as a function of ligand concentration in order to construct sigmoidal concentration-response curves. The binding affinity of the compounds is determined by calculating the equilibrium inhibition constant (Ki) from the equation Ki=InPt/1+[radio-ligand]/Kd where Kd is the equilibrium dissociation constant for the radio-ligand:receptor interaction and InPt is the inflection point of the dose-response curves.
Abramovitz, M. et al., Biochem, Biophys. Acta, 2000, 1483, pp. 285.

T1 sequence (P35408 whole entry): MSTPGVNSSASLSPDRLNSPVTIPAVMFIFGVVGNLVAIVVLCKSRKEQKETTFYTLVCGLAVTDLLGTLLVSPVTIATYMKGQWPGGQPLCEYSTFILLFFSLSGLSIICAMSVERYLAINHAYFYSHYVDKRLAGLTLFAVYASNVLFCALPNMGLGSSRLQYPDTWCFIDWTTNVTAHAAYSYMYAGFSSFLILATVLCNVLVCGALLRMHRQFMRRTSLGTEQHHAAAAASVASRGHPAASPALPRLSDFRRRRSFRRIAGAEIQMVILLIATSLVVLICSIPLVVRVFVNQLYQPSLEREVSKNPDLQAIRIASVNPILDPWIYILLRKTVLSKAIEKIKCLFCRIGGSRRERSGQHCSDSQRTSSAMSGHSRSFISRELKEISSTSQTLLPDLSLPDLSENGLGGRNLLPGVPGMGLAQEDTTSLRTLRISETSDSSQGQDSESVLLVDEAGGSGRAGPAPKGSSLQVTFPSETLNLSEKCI

| SMILES | IC50 [nM] |
| --- | --- |
| CN1CCc2c(n(-c3ccc(CCNC(=O)NS(=O)(=O)c4ccc(Cl)cc4)cc3)c3ccc(-c4cccnc4)cc23)C1=O [Example 1-21, 4-chloro-N-[({2-[4-(2-methyl-1-oxo-6-pyridin-3-yl-1,2,3,4-tetrahydro-9H-beta-carbolin-9-yl)phenyl]ethyl}amino)carbonyl]benzenesulfonamide] | < 1 |
| CN1CCc2c(n(-c3ccc(CCNC(=O)NS(=O)(=O)c4ccc(Cl)cc4)cc3)c3ccc(-c4ccccn4)cc23)C1=O [Example 1-22, 4-chloro-N-[({2-[4-(2-methyl-1-oxo-6-pyridin-2-yl-1,2,3,4-tetrahydro-9H-beta-carbolin-9-yl)phenyl]ethyl}amino)carbonyl]benzenesulfonamide] | < 1 |
| CN1CCc2c(n(-c3ccc(CC4(NC(=O)NS(=O)(=O)c5ccc(Cl)cc5)CC4)cc3)c3ccc(-c4ccccc4F)cc23)C1=O [Example 1-23, 4-chloro-N-{[(1-{4-[6-(2-fluorophenyl)-2-methyl-1-oxo-1,2,3,4-tetrahydro-9H-beta-carbolin-9-yl]benzyl}cyclopropyl)amino]carbonyl}benzenesulfonamide] | < 1 |
| CN1CCc2c(n(-c3ccc(CC4(NC(=O)NS(=O)(=O)c5ccc(Cl)cc5)CC4)cc3)c3ccc(-c4cccnc4)cc23)C1=O [Example 1-24, 4-chloro-N-[({1-[4-(2-methyl-1-oxo-6-pyridin-3-yl-1,2,3,4-tetrahydro-9H-beta-carbolin-9-yl)benzyl]cyclopropyl}amino)carbonyl]benzenesulfonamide] | < 1 |
| CN1CCc2c(n(-c3ccc(CC4(NC(=O)NS(=O)(=O)c5ccc(Cl)cc5)CC4)cc3)c3ccc(-c4ccsc4)cc23)C1=O [Example 1-25, 4-chloro-N-{[(1-{4-[2-methyl-1-oxo-6-(3-thienyl)-1,2,3,4-tetrahydro-9H-beta-carbolin-9-yl]benzyl}cyclopropyl)amino]carbonyl}benzenesulfonamide] | < 1 |
| CN1CCc2c(n(-c3ccc(CC4(NC(=O)NS(=O)(=O)c5ccc(Cl)cc5)CC4)cc3)c3ccc(-c4ccccn4)cc23)C1=O [Example 1-26, 4-chloro-N-[({1-[4-(2-methyl-1-oxo-6-pyridin-2-yl-1,2,3,4-tetrahydro-9H-beta-carbolin-9-yl)benzyl]cyclopropyl}amino)carbonyl]benzenesulfonamide] | < 1 |
| Cc1ccccc1-c1ccc2c(c1)c1c(n2-c2ccc(CC3(NC(=O)NS(=O)(=O)c4ccc(Cl)cc4)CC3)cc2)C(=O)N(C)CC1 [Example 1-27, 4-chloro-N-{[(1-{4-[2-methyl-6-(2-methylphenyl)-1-oxo-1,2,3,4-tetrahydro-9H-beta-carbolin-9-yl]benzyl}cyclopropyl)amino]carbonyl}benzenesulfonamide] | < 1 |
| Cc1cc(C)c2c3c(n(-c4ccc(CC5(NC(=O)NS(=O)(=O)c6ccc(Cl)cc6)CC5)cc4)c2c1)C(=O)N(C)CC3 [Example 1-28, 4-chloro-N-[({1-[4-(2,5,7-trimethyl-1-oxo-1,2,3,4-tetrahydro-9H-beta-carbolin-9-yl)benzyl]cyclopropyl}amino)carbonyl]benzenesulfonamide] | < 1 |
| CN1CCc2c(n(-c3ccc(CC4(NC(=O)NS(=O)(=O)c5c(Cl)cccc5Cl)CC4)cc3)c3ccc(-c4ccccc4)cc23)C1=O [Example 1-29, 2,6-dichloro-N-[({1-[4-(2-methyl-1-oxo-6-phenyl-1,2,3,4-tetrahydro-9H-beta-carbolin-9-yl)benzyl]cyclopropyl}amino)carbonyl]benzenesulfonamide] | < 1 |
| COc1cccc(OC)c1S(=O)(=O)NC(=O)NC1(Cc2ccc(-n3c4c(c5cc(-c6ccccc6)ccc53)CCN(C)C4=O)cc2)CC1 [Example 1-30, 2,6-dimethoxy-N-[({1-[4-(2-methyl-1-oxo-6-phenyl-1,2,3,4-tetrahydro-9H-beta-carbolin-9-yl)benzyl]cyclopropyl}amino)carbonyl]benzenesulfonamide] | < 1 |
| CN1CCc2c(n(-c3ccc(CCNC(=O)NS(=O)(=O)c4ccc(Cl)cc4)cc3)c3ccc(S(C)(=O)=O)cc23)C1=O [Example 1-31, 4-chloro-N-{[(2-{4-[2-methyl-6-(methylsulfonyl)-1-oxo-1,2,3,4-tetrahydro-9H-beta-carbolin-9-yl]phenyl}ethyl)amino]carbonyl}benzenesulfonamide] | < 1 |
| CN1CCc2c(n(-c3ccc(CC4(NC(=O)NS(=O)(=O)c5ccc(Cl)cc5)CC4)cc3)c3ccc(S(C)(=O)=O)cc23)C1=O [Example 1-34, 4-chloro-N-{[(1-{4-[2-methyl-6-(methylsulfonyl)-1-oxo-1,2,3,4-tetrahydro-9H-beta-carbolin-9-yl]benzyl}cyclopropyl)amino]carbonyl}benzenesulfonamide] | < 1 |
| CN1CCc2c(n(-c3ccc(CCNC(=O)NS(=O)(=O)c4ccc(Cl)cc4)cc3)c3ccc(-c4ccc(S(C)(=O)=O)cc4)cc23)C1=O [Example 1-35, 4-chloro-N-({[2-(4-{2-methyl-6-[4-(methylsulfonyl)phenyl]-1-oxo-1,2,3,4-tetrahydro-9H-beta-carbolin-9-yl}phenyl)ethyl]amino}carbonyl)benzenesulfonamide] | < 1 |
| CN1CCc2c(n(-c3ccc(CCNC(=O)NS(=O)(=O)c4ccc(Cl)cc4)cc3)c3ccc(-c4cccc(S(C)(=O)=O)c4)cc23)C1=O [Example 1-36, 4-chloro-N-({[2-(4-{2-methyl-6-[3-(methylsulfonyl)phenyl]-1-oxo-1,2,3,4-tetrahydro-9H-beta-carbolin-9-yl}phenyl)ethyl]amino}carbonyl)benzenesulfonamide] | < 1 |
| CN1CCc2c(n(-c3ccc(CC4(NC(=O)NS(=O)(=O)c5ccc(Cl)cc5)CC4)cc3)c3ccc(S(=O)(=O)c4ccccc4)cc23)C1=O [Example 1-37, 4-chloro-N-{[(1-{4-[2-methyl-1-oxo-6-(phenylsulfonyl)-1,2,3,4-tetrahydro-9H-beta-carbolin-9-yl]benzyl}cyclopropyl)amino]carbonyl}benzenesulfonamide] | < 1 |
| CN1CCc2c(n(-c3ccc(CC4(NC(=O)NS(=O)(=O)c5ccc(Cl)cc5)CC4)cc3)c3ccc(C4CC4)cc23)C1=O [Example 2-1, 4-chloro-N-[({1-[4-(6-cyclopropyl-2-methyl-1-oxo-1,2,3,4-tetrahydro-9H-beta-carbolin-9-yl)benzyl]cyclopropyl}amino)carbonyl]benzenesulfonamide] | < 1 |
| CN1CCc2c(n(-c3ccc(CCNC(=O)NS(=O)(=O)c4ccc(Cl)cc4)cc3)c3ccc(C4CC4)cc23)C1=O [Example 2-2, 4-chloro-N-[({2-[4-(6-cyclopropyl-2-methyl-1-oxo-1,2,3,4-tetrahydro-9H-beta-carbolin-9-yl)phenyl]ethyl}amino)carbonyl]benzenesulfonamide] | < 1 |
| CN1CCc2c(n(-c3ccc(CCNC(=O)NS(=O)(=O)c4ccc(Cl)cc4)cc3)c3cccc(C4CC4)c23)C1=O [Example 2-3, 4-chloro-N-[({2-[4-(5-cyclopropyl-2-methyl-1-oxo-1,2,3,4-tetrahydro-9H-beta-carbolin-9-yl)phenyl]ethyl}amino)carbonyl]benzenesulfonamide] | < 1 |
| CN1CCc2c(n(-c3ccc(CCNC(=O)NS(=O)(=O)c4ccc(Cl)cc4)cc3)c3cc(C4CC4)ccc23)C1=O [Example 2-4, 4-chloro-N-[({2-[4-(7-cyclopropyl-2-methyl-1-oxo-1,2,3,4-tetrahydro-9H-beta-carbolin-9-yl)phenyl]ethyl}amino)carbonyl]benzenesulfonamide] | < 1 |
| Cc1nnc(-c2ccc3c(c2)c2c(n3-c3ccc(CC4(NC(=O)NS(=O)(=O)c5ccc(Cl)cc5)CC4)cc3)C(=O)N(C)CC2)o1 [Example 3-1, sodium[(4-chlorophenyl)sulfonyl]{[(1-{4-[2-methyl-6-(5-methyl-1,3,4-oxadiazol-2-yl)-1-oxo-1,2,3,4-tetrahydro-9H-beta-carbolin-9-yl]benzyl}cyclopropyl)amino]carbonyl}azanide] | < 1 |

Same assay, conditions: column marked X when IC50 > 5; read-out: IC50 (nm) X > 5

| SMILES | IC50 [nM] |
| --- | --- |
| CN1CCc2c(n(-c3ccc(CCNC(=O)NS(=O)(=O)c4ccc(Cl)cc4)cc3)c3cccc(S(C)(=O)=O)c23)C1=O [Example 1-33, 4-chloro-N-{[(2-{4-[2-methyl-5-(methylsulfonyl)-1-oxo-1,2,3,4-tetrahydro-9H-beta-carbolin-9-yl]phenyl}ethyl)amino]carbonyl}benzenesulfonamide] | > 5 |

Same assay, conditions: column marked X when IC50 between 1 and 5; read-out: IC50 (nm) 1 < X < 5

| SMILES | IC50 [nM] |
| --- | --- |
| CN1CCc2c(n(-c3ccc(CCNC(=O)NS(=O)(=O)c4ccc(Cl)cc4)cc3)c3cc(S(C)(=O)=O)ccc23)C1=O [Example 1-32, 4-chloro-N-{[(2-{4-[2-methyl-7-(methylsulfonyl)-1-oxo-1,2,3,4-tetrahydro-9H-beta-carbolin-9-yl]phenyl}ethyl)amino]carbonyl}benzenesulfonamide] | 1 to 5 |

Same assay, conditions: radioligand displacement binding assay; read-out: IC50

| SMILES | IC50 [nM] |
| --- | --- |
| CN1CCc2c(n(-c3ccc(CCNC(=O)NS(=O)(=O)c4ccc(Cl)cc4)cc3)c3cc(S(C)(=O)=O)ccc23)C1=O [Example 1-32, 4-chloro-N-{[(2-{4-[2-methyl-7-(methylsulfonyl)-1-oxo-1,2,3,4-tetrahydro-9H-beta-carbolin-9-yl]phenyl}ethyl)amino]carbonyl}benzenesulfonamide] | 1 to 5 |
| CN1CCc2c(n(-c3ccc(CCNC(=O)NS(=O)(=O)c4ccc(Cl)cc4)cc3)c3cccc(S(C)(=O)=O)c23)C1=O [Example 1-33, 4-chloro-N-{[(2-{4-[2-methyl-5-(methylsulfonyl)-1-oxo-1,2,3,4-tetrahydro-9H-beta-carbolin-9-yl]phenyl}ethyl)amino]carbonyl}benzenesulfonamide] | > 5 |
